In ChEMBL document CHEMBL1201862, “PubChem BioAssay data set” (2004):
Calls of active or inactive are those of the source.

Experiments:
[1] = target: T1, Mannose-6-phosphate isomerase (Homo sapiens, UniProt P34949); experiment: human PMI inhibitors, high substrate, primary screen, biochemical, fluorescence intensity, high mannose 6-phosphate (AID 1220)
T1 sequence (P34949 whole entry): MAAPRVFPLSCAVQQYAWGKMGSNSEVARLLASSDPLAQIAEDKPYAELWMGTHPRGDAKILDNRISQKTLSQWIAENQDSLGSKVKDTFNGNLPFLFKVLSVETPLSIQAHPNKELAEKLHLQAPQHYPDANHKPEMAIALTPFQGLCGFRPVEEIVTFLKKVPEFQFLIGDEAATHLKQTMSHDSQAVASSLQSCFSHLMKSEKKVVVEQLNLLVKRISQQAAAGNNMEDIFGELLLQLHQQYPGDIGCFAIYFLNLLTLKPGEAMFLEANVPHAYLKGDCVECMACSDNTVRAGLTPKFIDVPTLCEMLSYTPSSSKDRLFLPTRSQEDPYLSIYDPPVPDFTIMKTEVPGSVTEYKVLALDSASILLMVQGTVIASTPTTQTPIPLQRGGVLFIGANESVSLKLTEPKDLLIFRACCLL

[2] = target: T2, Replicative DNA helicase DnaB (Mycobacterium tuberculosis, UniProt P9WMR3); experiment: DnaB intein splicing inhibitors, dose response, biochemical, cell-free fluorescence (AID 449749); format: functional
T2 sequence (P9WMR3 whole entry): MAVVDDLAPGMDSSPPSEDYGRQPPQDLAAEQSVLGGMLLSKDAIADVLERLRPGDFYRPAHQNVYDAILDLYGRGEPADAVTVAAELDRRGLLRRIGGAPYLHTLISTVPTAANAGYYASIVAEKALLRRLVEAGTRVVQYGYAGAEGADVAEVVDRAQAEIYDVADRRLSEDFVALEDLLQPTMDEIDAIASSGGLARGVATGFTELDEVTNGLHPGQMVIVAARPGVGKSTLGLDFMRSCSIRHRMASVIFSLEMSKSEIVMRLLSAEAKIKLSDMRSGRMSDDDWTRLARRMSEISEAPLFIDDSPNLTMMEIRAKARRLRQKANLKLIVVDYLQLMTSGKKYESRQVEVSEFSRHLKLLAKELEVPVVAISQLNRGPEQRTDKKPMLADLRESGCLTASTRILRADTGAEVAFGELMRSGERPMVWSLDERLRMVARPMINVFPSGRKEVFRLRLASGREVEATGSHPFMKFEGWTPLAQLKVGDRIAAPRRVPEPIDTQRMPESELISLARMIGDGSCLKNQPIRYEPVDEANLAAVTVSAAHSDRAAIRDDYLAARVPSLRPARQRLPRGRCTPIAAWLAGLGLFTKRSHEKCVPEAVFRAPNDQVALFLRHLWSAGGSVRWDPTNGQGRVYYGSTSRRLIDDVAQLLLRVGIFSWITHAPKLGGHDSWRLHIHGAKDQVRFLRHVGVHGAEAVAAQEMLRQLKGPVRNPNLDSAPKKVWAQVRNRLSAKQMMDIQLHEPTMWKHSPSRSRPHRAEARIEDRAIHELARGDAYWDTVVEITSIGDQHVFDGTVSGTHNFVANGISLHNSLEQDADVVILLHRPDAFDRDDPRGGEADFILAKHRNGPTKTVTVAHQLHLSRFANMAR

[3] = target: T3, Protein RecA (Mycobacterium tuberculosis, UniProt P9WHJ3); experiment: Fluorescence Cell-Free Homogeneous Dose Retest to Identify Inhibitors of RecA-Intein Splicing Activity. [Related pubchem assays (depositor defined):AID2097, AID2223, AID489010, AID492950]; format: functional
T3 sequence (P9WHJ3 whole entry): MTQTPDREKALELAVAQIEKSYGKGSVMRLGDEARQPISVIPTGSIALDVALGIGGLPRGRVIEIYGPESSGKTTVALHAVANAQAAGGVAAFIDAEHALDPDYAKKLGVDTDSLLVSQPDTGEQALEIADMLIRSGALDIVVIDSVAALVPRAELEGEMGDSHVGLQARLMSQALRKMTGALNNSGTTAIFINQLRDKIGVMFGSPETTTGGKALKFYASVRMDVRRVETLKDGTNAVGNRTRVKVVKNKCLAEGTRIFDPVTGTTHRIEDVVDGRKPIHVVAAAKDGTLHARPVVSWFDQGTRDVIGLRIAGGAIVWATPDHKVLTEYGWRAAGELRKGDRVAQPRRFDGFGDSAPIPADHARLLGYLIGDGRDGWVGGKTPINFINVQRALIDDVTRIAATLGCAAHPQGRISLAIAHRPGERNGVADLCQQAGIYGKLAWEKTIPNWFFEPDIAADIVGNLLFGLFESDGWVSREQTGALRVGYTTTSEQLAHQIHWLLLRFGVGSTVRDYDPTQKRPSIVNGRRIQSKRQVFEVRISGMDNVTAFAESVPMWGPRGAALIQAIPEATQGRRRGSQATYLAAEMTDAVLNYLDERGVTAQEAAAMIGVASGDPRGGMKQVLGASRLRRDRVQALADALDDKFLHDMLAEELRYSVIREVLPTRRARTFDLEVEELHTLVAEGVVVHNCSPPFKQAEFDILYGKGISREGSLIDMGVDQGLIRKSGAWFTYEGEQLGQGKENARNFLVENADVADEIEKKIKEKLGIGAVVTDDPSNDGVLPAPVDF

[4] = test system: Vero; experiment: Vero cell cytotoxicity, cytotoxicity control for flavivirus capping enzyme inhibitors (AID 588742); format: functional; conditions: Chlorocebus sabaeus
[5] = target: Fructose-bisphosphate aldolase (Mycobacterium tuberculosis, UniProt P9WQA3); experiment: Fluorescence-based biochemical high throughput dose response assay for inhibitors of the fructose-bisphosphate aldolase (FBA) of M. tuberculosis.; format: functional
Fructose-bisphosphate aldolase, sequence (P9WQA3 whole entry): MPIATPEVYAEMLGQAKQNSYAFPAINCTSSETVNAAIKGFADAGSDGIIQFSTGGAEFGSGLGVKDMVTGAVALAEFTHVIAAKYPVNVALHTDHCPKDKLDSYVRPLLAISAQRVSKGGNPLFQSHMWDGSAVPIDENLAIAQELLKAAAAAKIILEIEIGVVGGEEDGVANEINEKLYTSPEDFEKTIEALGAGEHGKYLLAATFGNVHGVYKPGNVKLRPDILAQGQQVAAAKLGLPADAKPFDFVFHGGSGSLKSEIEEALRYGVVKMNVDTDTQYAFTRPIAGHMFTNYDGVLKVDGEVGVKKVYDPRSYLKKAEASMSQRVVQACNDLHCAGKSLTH

[6] = human group III sPLA2 inhibitors, dose response, biochemical, QFRET, IC50 (AID 743457);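 note: green fluorescence rise as the enzyme cleaves BODIPY PC-A2 in liposomes; potency for inhibition of the enzyme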
[7] = target: Beta-galactosidase (Escherichia coli, UniProt Q8VNN2); experiment: Dose response counterscreen for EBI2 assay utilizing the enzyme, b-galactosidase.; format: functional
Beta-galactosidase, sequence (Q8VNN2 whole entry): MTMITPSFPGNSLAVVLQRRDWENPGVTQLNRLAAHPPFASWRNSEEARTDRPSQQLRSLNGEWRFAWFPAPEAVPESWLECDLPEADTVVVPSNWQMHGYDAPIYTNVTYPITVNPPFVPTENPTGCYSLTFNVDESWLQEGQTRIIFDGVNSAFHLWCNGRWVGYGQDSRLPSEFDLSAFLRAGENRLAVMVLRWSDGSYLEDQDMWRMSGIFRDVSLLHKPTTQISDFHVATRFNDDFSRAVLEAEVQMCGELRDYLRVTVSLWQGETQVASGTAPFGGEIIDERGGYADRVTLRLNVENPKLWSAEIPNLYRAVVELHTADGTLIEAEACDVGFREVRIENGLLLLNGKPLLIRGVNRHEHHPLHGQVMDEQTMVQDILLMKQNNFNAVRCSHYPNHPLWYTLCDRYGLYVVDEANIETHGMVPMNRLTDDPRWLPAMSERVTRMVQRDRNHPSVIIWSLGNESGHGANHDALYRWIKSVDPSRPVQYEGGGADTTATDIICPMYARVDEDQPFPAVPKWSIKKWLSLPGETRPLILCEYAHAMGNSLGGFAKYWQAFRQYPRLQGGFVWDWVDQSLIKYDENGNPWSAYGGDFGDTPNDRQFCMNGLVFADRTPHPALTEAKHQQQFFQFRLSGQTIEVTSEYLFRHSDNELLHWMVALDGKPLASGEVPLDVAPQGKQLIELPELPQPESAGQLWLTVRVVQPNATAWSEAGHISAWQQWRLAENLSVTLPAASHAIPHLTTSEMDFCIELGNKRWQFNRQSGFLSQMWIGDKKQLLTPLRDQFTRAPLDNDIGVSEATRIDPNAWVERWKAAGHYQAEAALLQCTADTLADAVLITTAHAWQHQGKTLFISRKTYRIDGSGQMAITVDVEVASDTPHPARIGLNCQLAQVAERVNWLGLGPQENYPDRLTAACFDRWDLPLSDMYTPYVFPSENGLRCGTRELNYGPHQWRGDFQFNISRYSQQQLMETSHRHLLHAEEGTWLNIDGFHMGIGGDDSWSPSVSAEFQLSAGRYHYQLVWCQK

[8] = target: T4, Probable nicotinate-nucleotide adenylyltransferase (Staphylococcus aureus (strain N315), UniProt P65502); format: functional, Staphylococcus aureus subsp. aureus N315; conditions: read-out: IC50_Mean;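 for IC50 Mean: confirmatory dose-response retesting of NadD inhibitor hits first found in an ultra-high-throughput screen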
T4 sequence (P65502 whole entry): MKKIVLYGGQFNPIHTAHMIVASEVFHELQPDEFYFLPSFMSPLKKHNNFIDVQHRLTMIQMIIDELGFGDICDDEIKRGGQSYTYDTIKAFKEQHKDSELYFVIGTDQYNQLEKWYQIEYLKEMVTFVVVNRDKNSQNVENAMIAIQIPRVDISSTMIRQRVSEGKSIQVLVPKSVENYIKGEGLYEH

[9] = target: T4, Probable nicotinate-nucleotide adenylyltransferase; format: functional, Staphylococcus aureus subsp. aureus N315
[10] = Fluorescence-based cell-based high throughput dose response assay for inhibitors of the interaction of nucleotide-binding oligomerization domain containing 2 (NOD2) and the receptor-interacting serine-threonine kinase 2 (RIPK2).; format: functional, Homo sapiens
[11] = miR-122 activators in hepatoma reporter cells, dose response, cell-based, Huh7 psiCHECK-miR122, Renilla luciferase, cherry-picked (AID 651956); format: functional;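 note: huh7 hepatoma cells stably carrying a psiCHECK-2 miR-122 sensor plasmid; renilla luciferase signal reporting endogenous miR-122 activity after 48 h compound exposure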
[12] = inhibitors of TNFa-stimulated NF-kB luciferase reporter, dose response, selectivity assay for EBV LMP1 NF-kB inhibitor project, HEK293 LMP1 reporter cells, dry powder, set 2 (AID 624369); format: functional
[13] = LMP1-driven NF-kB reporter inhibition, dose response, cell-based, luciferase reporter, luminescence, dry powder, set 2 (AID 624376); format: functional
[14] = inhibitors of LMP1-driven NF-kB reporter, dose response, cell-based, EBV LMP1, luciferase, dry powder, set 2 (AID 624361); format: functional
[15] = cells; format: functional, cell-based
[16] = target: T5, Nuclear receptor subfamily 0 group B member 1 (Homo sapiens, UniProt P51843); format: functional, cell-based;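 note: HEK293T cells transfected with SF-1 and DAX-1 plus StAR promoter luciferase reporter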
T5 sequence (P51843 whole entry): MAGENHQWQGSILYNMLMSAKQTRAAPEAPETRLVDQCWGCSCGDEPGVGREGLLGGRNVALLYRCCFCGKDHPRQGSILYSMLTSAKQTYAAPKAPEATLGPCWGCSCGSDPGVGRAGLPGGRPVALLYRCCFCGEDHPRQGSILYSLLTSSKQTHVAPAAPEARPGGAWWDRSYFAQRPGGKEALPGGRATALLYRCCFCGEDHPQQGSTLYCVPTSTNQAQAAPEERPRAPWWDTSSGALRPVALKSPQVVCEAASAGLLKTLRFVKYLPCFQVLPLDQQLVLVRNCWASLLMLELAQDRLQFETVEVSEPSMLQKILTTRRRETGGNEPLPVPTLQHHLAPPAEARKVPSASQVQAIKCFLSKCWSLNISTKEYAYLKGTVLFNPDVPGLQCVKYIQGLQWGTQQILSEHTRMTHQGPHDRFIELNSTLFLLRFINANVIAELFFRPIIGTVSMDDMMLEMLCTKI

[17] = HEK293 cell cytotoxicity, dose response, cytotoxicity control, cherry-picks, set 5 (AID 1053117); format: functional, cell-based

Structure (SMILES): CCOC(=O)c1c(NC(=O)c2ccco2)n(C2CCCCC2)c2nc3ccccc3nc12
- IC50 [1]: > 50 µM (not active)
- AC50 [2]: 229 µM (active)
- EC50 [3]: 2.62 µM (active)
- CC50 [4]: > 40 µM (active)
- IC50 [5]: 1.67 µM (active)

Structure (SMILES): Cc1cccc(-n2c(S)nnc2-c2ccoc2C)c1
- IC50 [6]: > 122 µM (inactive)

Structure (SMILES): CCOC(=O)N1CCN(C(=O)c2cc3c(s2)-c2ccccc2OC3)CC1
- IC50 [7]: > 80 µM (inactive)

Structure (SMILES): Cc1ccc(Cn2c(C3CCCN3c3nc(-c4cc(Cl)c(N)c(Cl)c4)cs3)nc3cc(Cl)c(Cl)cc32)cc1 (stereo unspecified)
- IC50 [8]: 26.4 µM (active)
- IC50 [9]: 11.1 µM (active)

Structure (SMILES): CC(=O)O[C@H]1C[C@@H]2OC3C=C(C)CCC3(C)[C@@]1(C)[C@@]21CO1 (stereo partly specified)
- IC50 [10]: 49.8 µM (inactive)

Structure (SMILES): CN1C(=O)c2cc(NC(=O)c3ccc(C(F)(F)F)cc3)ccc2OC[C@@H]2O[C@H](CC(=O)NC3Cc4ccccc4C3)CC[C@H]21
- AC50 [11]: 15.5 µM (active)
- AbsAC35 [12]: 229.94 µM
- AbsAC35 [13]: 100.28 µM
- AbsAC35 [14]: 52.78 µM

Structure (SMILES): COc1ccccc1CNC(=O)C[C@@H]1C[C@H]2c3cc(NC(=O)c4ccc5c(c4)OCO5)ccc3O[C@H]2[C@H](CO)O1
- AbsAC35 [12]: 232.4 µM
- AbsAC35 [13]: 37.67 µM
- AbsAC35 [14]: 179.84 µM

Structure (SMILES): COc1cc(C2c3cc4c(cc3C(O)C3COC(=O)C23)OCO4)cc(OC)c1OC (stereo unspecified)
- IC50 [15]: > 67.5 µM (inactive)
- IC50 [16]: > 67.5 µM (inactive)

Structure (SMILES): CO[C@H]1CN(C)C(=O)c2cc(NC(=O)Nc3cc(Cl)cc(Cl)c3)ccc2OC[C@@H](C)NC[C@@H]1C
- AC50 [17]: > 52 µM (inactive)

Structure (SMILES): CCCCNc1c(-c2ccc(-c3ccc(C(C)=O)cc3)c(OC)c2)nc2cc(C)ccn12
- IC50 [7]: 77.5 µM (inactive)
